Holding throughout (test): inhibition of tumour cell growth, NCI panel, 48 h
Test [1] concerns MALME-3M melanoma.
Test [2] has as its system TK-10 renal.
For test [3], the system named is SF-268 CNS.
Test [4] concerns SK-MEL-5 melanoma.
Test [5] has as its system SW-620 colon.
For test [6], the system named is MOLT-4 leukemia.
Test [7] deals with OVCAR-3 ovarian.
For test [8], the system named is RPMI-8226 leukemia.
Test [9] deals with A498 renal.
Test [10] concerns SK-OV-3 ovarian.
Test [11] concerns UACC-257 melanoma.
For test [12], the system named is HOP-62 NSCLC.
In test [13] the test system is OVCAR-5 ovarian.
Test [14] has as its system MDA-N.
Test [15] has as its system A549 NSCLC.
Test [16] relates to CCRF-CEM leukemia.
The test system of test [17] is OVCAR-4 ovarian.
Test [18] deals with HCT-116 colon.
Test [19] relates to HCC-2998 colon.
Test [20] concerns SNB-75 CNS.

Molecules are shown by their SMILES.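 Protocol summary: plate cells (96-well), add compound at 5 concentrations, incubate 48 h, interpolate endpoints linearly. At the TGI there is no net growth.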

`CS(=O)(=O)C(=Cc1ccccc1Cl)S(C)(=O)=O`: the TGI in test [1], in [2], in [3], in test [4], in test [5] and in [6] was > 100 µM each time. The TGI in [7], in test [8], in [9], in [10], in test [11] and in test [12] was > 100 µM each time. The TGI in test [13] was > 100 µM; in [14], > 46.4 µM; in test [15] it was > 100 µM; in test [16], > 100 µM; in test [17] it was > 100 µM; in test [18] it was > 100 µM. Also, the TGI in [19] and in test [20] was > 100 µM throughout.

As to `Cc1oc2c(c1C(=O)c1ccccc1)C(=O)c1ccccc1C2=O`, the TGI in test [1] stood at 4.53 µM; in test [2], 33.2 µM; in test [3], 32.8 µM; in test [4], 4.15 µM; in test [5], 4.59 µM; in [6], 6.38 µM. The TGI in test [7] came to 6.22 µM; in test [8], 23.8 µM; in test [9] it was 33.9 µM; in test [10] it was 20.7 µM; in [11] it was 10.5 µM; in test [12] it was 22.4 µM. Moreover, the TGI in test [13] came to 31.5 µM; in [14] it was 3.9 µM; in [15] it was 40.2 µM; in [16] it was 5.76 µM; in [17] it was 9.95 µM; in test [18], 8.76 µM. Also, the values for the TGI in test [19] and in [20] were 29.1 µM and 13.6 µM, respectively.

Turning to `CC[C@H](CCCCC1CC[C@@H]2CC(=O)C[C@H]12)OC` (stereo not given in full), the TGI in test [1], in [2], in test [3], in test [4], in [5] and in test [6] was > 100 µM throughout. Moreover, the TGI in test [7], in test [8], in test [9], in test [10], in [11] and in test [12] was > 100 µM each time. The TGI in test [13], in [14], in test [15], in test [16], in test [17] and in test [18] was > 100 µM in each case. The TGI in test [19] and in [20] was > 100 µM each time.

In the case of `O=[N+]([O-])C(=C1Nc2ccccc2N1)C(Cl)=C(Cl)Cl`, the TGI in test [1] was > 100 µM; in test [2] it was > 100 µM; in [3], > 100 µM; in [4] it was > 100 µM; in test [5] it was > 100 µM; in [6], 56.3 µM. For the same compound, the TGI in test [7] is 53.1 µM; in test [8] it was > 100 µM; in test [9], > 100 µM; in test [10] it was > 100 µM; in test [11], > 100 µM; in test [12] it was > 100 µM. For the same compound, the TGI is > 100 µM in test [13]; > 100 µM in [14]; > 100 µM in test [15]; 76 µM in [16]; > 100 µM in test [17]; > 100 µM in test [18]. The TGI in test [19] was > 100 µM; in [20], 12.4 µM.

For the compound `COc1cc2c(cc1OC)-c1cc3ccccc3c(=O)n1CCC2`, the TGI in [1] was 98.1 µM; in test [2], > 100 µM; in test [3] it was > 100 µM; in test [4], 28 µM; in [5], > 87.9 µM; in [6], 10.4 µM. In addition, the TGI in test [7] is 60.4 µM; in test [8] it was 29.4 µM; in test [9], 31.5 µM; in test [10] it was > 100 µM; in [11] it was > 86.1 µM; in [12] it was > 75.3 µM. In addition, the TGI was > 100 µM in test [13]; 33.6 µM in [14]; > 100 µM in test [15]; 33.9 µM in test [16]; > 100 µM in test [17]; > 38.6 µM in [18]. The TGI in [19] is > 64.3 µM; in test [20] it was > 90.3 µM.

For the compound `CC(C)C1OCC(CO)CO1` (stereo not given), the TGI in test [1], in [2], in test [3], in test [4], in test [5] and in test [6] was > 100 µM throughout. For the same compound, the TGI in [7], in [8], in test [9], in test [10], in test [11] and in test [12] was > 100 µM throughout. The TGI in [13], in test [14], in test [15], in test [16], in test [17] and in [18] was > 100 µM throughout. Further, the TGI in [19] and in [20] was > 100 µM throughout.

For the compound `CCOC(=O)Cn1nc2ccc(Nc3nc4ccccc4nc3C(=O)OCC)cc2n1`, the TGI in [1], in test [2], in test [3], in [4], in test [5] and in test [6] was > 100 µM each time. In addition, the TGI in test [7], in [8], in [9], in test [10], in test [11] and in [12] was > 100 µM each time. The TGI in test [13], in test [14], in test [15], in [16], in [17] and in test [18] was > 100 µM each time. The TGI in [19] was > 100 µM; in test [20] it was 37.1 µM.

Values taken from PubChem BioAssay (NCI).
